Laboratory results as given in patent publication US5616563A, “Glutathione N-hydroxycarbamoyl thioesters and method of inhibiting neoplastic growth” (University of Maryland Baltimore Campus, priority 1994, dated 1997).
Each block holds one compound with its values, some of them ahead of it.

Key:
[1] = of substituent R; cited from earlier work
[2] = test system: Human Leukemia 60 (HL60) cells; test: Growth inhibition and kill of human leukemia 60 cells; type: cell-based; details: HL60, 72 hr. incubation; for IC50: Homo sapiens, HL-60, read-out: GI (concentration for 50% cell growth inhibition)
Description: The observation that compounds 2 and 6(c) inhibit tumor cell growth, but were not strongly cytotoxic to tumor cells at the concentrations tested, prompted the synthesis of diethyl esters of compounds 6(a), 6(b), and 6(c). These derivatives were then tested with human leukemia cells (HL60 cells) grown in RPMI/fetal calf serum medium at 37° C.
^c Concentration for 50% cell kill.

[3] = target: bovine liver glyoxalase II (Bos taurus, UniProt Q3B7M2); test: Substrate and inhibition studies with bovine liver glyoxalase II; details: for Vm (rel.): relative to Vm for S-D-lactoylglutathione
Description: The standard errors for Vm and Km were obtained by analysis of the initial rate data using the HYPER program of Cleland.
^a HEPES buffer (100 mM, pH 7.4), 25° C.
^b Listed values are relative to Vm for SD-lactoylglutathione.
^c Inhibition constants obtained from using the enediol analogs as

[4] = test system: Ovarian Cancer (SK-OV-3); test: NCI tumor cell growth inhibition, ovarian cancer SK-OV-3
Description: (§1) ^a Concentration for 50% cell growth inhibition versus nodrug
(§2) ^b Concentration for total cell growth inhibition versus nodrug

[5] = test system: CNS Cancer (SNB-75); test: NCI tumor cell growth inhibition, CNS cancer SNB-75
Description: as §1, §2

[6] = test system: Melanoma (UACC-62); test: NCI tumor cell growth inhibition, melanoma UACC-62
Description: as §1, §2

[7] = test system: Colon Cancer (KMZOLZ); test: NCI tumor cell growth inhibition, colon cancer KMZOLZ
Description: as §1, §2

[8] = test system: Non-Small Cell Lung Cancer (HOP-18); test: NCI tumor cell growth inhibition, non-small cell lung cancer HOP-18
Description: as §1, §2

[9] = test system: Renal Cancer (ACHN); test: NCI tumor cell growth inhibition, renal cancer ACHN
Description: as §1, §2

[10] = HEPES buffer (100 mM, pH 7.4), 25° C.
[11] = Homo sapiens, SK-OV-3, read-out: inhibition of cell growth
[12] = Homo sapiens, UACC-62, read-out: inhibition of cell growth
[13] = Homo sapiens, 48 h, read-out: GI (concentration for 50% cell growth inhibition)
[14] = Homo sapiens, read-out: inhibition of cell growth

Compound: N[C@@H](CCC(=O)N[C@@H](CSC(=O)N(O)c1ccccc1)C(=O)NCC(=O)O)C(=O)O [Compound 6a, S-(N-Hydroxy N-Phenylcarbamoyl) Glutathione]
π (Hansch hydrophobicity constant) [1]: 2.13 | LC50 (concentration for 50% cell kill) [2]: > 1000 µM | TGI (concentration for total cell growth inhibition) [2]: > 1000 µM | IC50 [2]: ~100 µM | Ki [3]: 11 ± 1.2 µM | Km ([3]; as substrate, HEPES buffer (100 mM, pH 7.4), 25° C.): 13 ± 2 µM | Vm (rel.) [3, 10]: (0.46 ± 0.01) × 10^-5

Ki [3]: 3.4 ± 0.8 µM | Vm (rel.) [3, 10]: (1.5 ± 0.3) × 10^-5
Compound: N[C@@H](CCC(=O)N[C@@H](CSC(=O)N(O)c1ccc(Cl)cc1)C(=O)NCC(=O)O)C(=O)O [Compound 6b, S-(N-Hydroxy-N-4-chlorophenylcarbamoyl) glutathione]
π (Hansch hydrophobicity constant) [1]: 3.04 | LC50 (concentration for 50% cell kill) [2]: > 1000 µM | TGI (concentration for total cell growth inhibition) [2]: > 1000 µM | IC50 [2]: ~100 µM

Compound: N[C@@H](CCC(=O)N[C@@H](CSC(=O)N(O)c1ccc(Br)cc1)C(=O)NCC(=O)O)C(=O)O [Compound 6c, S-(N-Hydroxy-N-4-bromophenylcarbamoyl) glutathione]
IC50 ([4]; Homo sapiens, SK-OV-3, 48 h, read-out: GI (concentration for 50% cell growth inhibition)): 32 µM | inhibition at 1 µM [4, 11]: ~40% | inhibition at 100 µM [4, 11]: > 80% | inhibition of cell growth ([4]; SK-OV-3, 10^-5): about 30% | LC50 (concentration for 50% cell kill) ([4]; SK-OV-3, 48 hrs. incubation): > 1000 µM | TGI (concentration for total cell growth inhibition) ([4]; SK-OV-3, 48 hrs. incubation): ~ 250 μM | inhibition of cell growth ([5]; CNS human cancer cells, 10^-6 M and 10^-5 M): about 20% | IC50 ([5]; Homo sapiens, SNB-75, 48 h, read-out: GI (concentration for 50% cell growth inhibition)): 63 µM | inhibition at 100 µM ([5]; Homo sapiens, SNB-75, read-out: inhibition of cell growth): 60% | LC50 (concentration for 50% cell kill) ([5]; SNB-75, 48 hrs. incubation): > 1000 µM | TGI (concentration for total cell growth inhibition) ([5]; SNB-75, 48 hrs. incubation): ~ 1000 μM | π (Hansch hydrophobicity constant) [1]: 3.25 | LC50 (concentration for 50% cell kill) [2]: ~ 300 μM | TGI (concentration for total cell growth inhibition) [2]: 63 µM | IC50 [2]: 20 µM | IC50 ([6]; Homo sapiens, UACC-62, 48 h, read-out: GI (concentration for 50% cell growth inhibition)): 126 µM | inhibition at 10 µM [6, 12]: ~20% | inhibition at 100 µM [6, 12]: 50% | inhibition of cell growth ([6]; UACC-62, 10^-6 M and lower concentrations): minimal inhibition | LC50 (concentration for 50% cell kill) ([6]; UACC-62, 48 hrs. incubation): > 1000 µM | TGI (concentration for total cell growth inhibition) ([6]; UACC-62, 48 hrs. incubation): > 1000 µM | IC50 [7, 13]: 40 µM | inhibition at 100 µM [7, 14]: 80% | inhibition of cell growth ([7]; KMZOL2, 10^-6 and 10^-5): about 10% | LC50 (concentration for 50% cell kill) ([7]; KMZOLZ, 48 hrs. incubation): > 1000 µM | TGI (concentration for total cell growth inhibition) ([7]; KMZOLZ, 48 hrs. incubation): ~ 320 μM | Ki [3]: 1.2 ± 0.4 µM | Vm (rel.) [3, 10]: (2.1 ± 0.4) × 10^-5 | cell growth inhibition ([8]; HOP-18, 10^-6 to 10^-5 M): about 15% | LC50 (concentration for 50% cell kill) ([8]; HOP-18, 48 hrs. incubation): > 1000 µM | TGI (concentration for total cell growth inhibition) ([8]; HOP-18, 48 hrs. incubation): ~ 250 μM | IC50 ([8]; Homo sapiens, HOP-18, 48 h, read-out: GI (concentration for 50% cell growth inhibition)): 40 µM | inhibition at 100 µM ([8]; Homo sapiens, HOP-18, read-out: cell growth inhibition): ~80% | LC50 (concentration for 50% cell kill) ([9]; 48 hrs. incubation): > 1000 µM | TGI (concentration for total cell growth inhibition) ([9]; 48 hrs. incubation): ~ 200 μM | IC50 [9, 13]: 25 µM | inhibition at 10 µM [9, 14]: 30% | inhibition at 100 µM [9, 14]: ~95%
